This note sets out measurements from publication PMC1616953 (Nucleic Acids Research, 2006).

In general, Km refers to the concentration of substrate that gives half-maximal velocity.

In this assay the test system is Ssα-fuc. Kind of assay: enzyme kinetics, 4-nitrophenyl substrate hydrolysis. It counts as biochemical, Saccharolobus solfataricus. The settings on record: 65°C; KM printed as identical within error for Ssα-fuc and Ssα-fuc^B.

For the compound `C[C@@H]1O[C@@H](Oc2ccc([N+](=O)[O-])cc2)[C@@H](O)[C@H](O)[C@@H]1O` [4NP-Fuc, 4-nitrophenyl-α-L-fucoside], the Km was 28.7 ± 5 µM.
